According to patent US9394299B2, “Rilyazine derivatives and compositions for the treatment of cancer” (Warner Babcock Institute for Green Chemistry, LLC, priority 2013, dated 2016):

Assays:
MCF-7 cells = test: MTT cell proliferation assay, MCF-7; assay type: cell-based; settings: 72 h-exposure, 30-0.041 μM
Description: In vitro characterizing of the effects of rilyazine analogs on cell proliferation and apoptosis in the paired epithelial/mesenchymal lines (Colo205/Colo-R, DLD/DLD-SNAIL and MCF7/MCF7-WISP) was performed in an independent laboratory.
The Dose Preparation is based on a reconstitute in DMSO. The Concentration of the stock solution is 100 mM. Storage of the stock solution is under −80° C.
Working drug solution of rilyazine analogs: A stock solution of 100 mM OTX015 in DMSO was prepared and stored at −80° C. For growth inhibition studies, dilution series were prepared by (1) diluting stock solution into DMSO, then (2) diluting 1:300 in culture medium supplemented with 10% FBS giving a final concentration in 0.3% DMSO in the 96-well plates.
Cell lines. Cells lines were maintained in RPMI 1640 (PAA Laboratories, France) supplemented with 10% fetal bovine serum (FBS; PAA Laboratories, France), 2 mM glutamine (PAA Laboratories, France), 100 units/ml penicillin and 100 μg/ml streptomycin (PAA Laboratories, France). Cells were free of Mycoplasma.
Proliferation assays. Cell proliferation was determined using the MTT assay (3-[4,5-dimethylthiazol-2-yl]-2,5-diphenyltetrazolium bromide; Sigma-Aldrich, St. Louis, Mo.). […] After incubation, the supernatant was discarded, the cell pellet was resuspended in 0.1 mL DMSO, and the absorbance was measured at 560 nm using a microplate reader (Thermo, France). […]

SN12C (Renal Cancer) = test: NCI single point 10 μM, SN12C; assay type: cell-based, human; settings: 10^−5 M
Description: (§1) The screening is a two-stage process, beginning with the evaluation of all compounds against 60 cell lines at a single dose of 10^−5 M.
(§2) The human tumor cell lines of the cancer screening panel are grown in RPMI 1640 medium containing 5% fetal bovine serum and 2 mM L-glutamine. Cells are inoculated into 96 well microtiter plates in 100 μL at plating densities ranging from 5,000 to 40,000 cells/well depending on the doubling time of individual cell lines. After cell inoculation, the microtiter plates are incubated at 37° C., 5% CO2, 95% air and 100% relative humidity for 24 h prior to addition of experimental drugs. […]
(§3) Following drug addition, the plates are incubated for an additional 48 h at 37° C., 5% CO2, 95% air, and 100% relative humidity. […] Bound stain is subsequently solubilized with 10 mM trizma base, and the absorbance is read on an automated plate reader at a wavelength of 515 nm. […]
(§4) For the 1-dose 60 cell testing, the Growth Percent is calculated for each cell line/drug combination from the absorbance measurement for the no-drug control (C), the absorbance at time zero (Tz) and the absorbance measurement after incubation of the cells in the presence of drug (Ti): Growth Percent=[(Ti−Tz)/(C−Tz)]×100 for cell line/drug combinations for which Ti≧Tz. […]

MALME-3M (Melanoma) = test: NCI single point 10 μM, MALME-3M; assay type: cell-based, human; settings: 10^−5 M
Description: as §1, §2, §3, §4

## S=c1c2ncccc2c(-c2ccccn2)nn1C1CCCCC1 [RL-4, 7-cyclohexyl-5-(pyridin-2-yl)pyrido[2,3-d]pyridazine-8(7H)-thione]
MCF-7 cells
  anti-proliferative effects (in words): dose-dependent anti-proliferative effects
SN12C (Renal Cancer)
  Growth Percent: 95.87%
MALME-3M (Melanoma)
  Growth Percent: 98.97%
